Our source for the minimal effective concentration values is patent US11331369B2, “Endoparasitic depsipeptides” (Zoetis Services LLC, priority 2017, dated 2022).

This assay relates to microfilariae of Dirofilaria immitis. The assay is described as follows: Dirofilaria immitis, Microfilaria (DiMF) In vitro Assay. It counts as cell-based. To be noted: 72 h, read-out: DiMF Minimum Effective Dose (MED), approximately 72 hours incubation, microfilariae assessed for survival or paralysis.

In the case of `CC(C)C[C@H]1C(=O)O[C@H](Cc2cccc(Cn3ccnc3CO)c2)C(=O)N(C)[C@@H](CC(C)C)C(=O)O[C@H](C)C(=O)N(C)[C@@H](CC(C)C)C(=O)O[C@H](Cc2ccc(Cn3ccnc3CO)cc2)C(=O)N(C)[C@@H](CC(C)C)C(=O)O[C@H](C)C(=O)N1C` [Example 7-11, (3S,6R,9S,12R,15S,18R,21S,24R)-6-(3-((2-(hydroxymethyl)-1H-imidazol-1-yl)methyl)benzyl)-18-(4-((2-(hydroxymethyl)-1H-imidazol-1-yl)methyl)benzyl)-3,9,15,21-tetraisobutyl-4,10,12,16,22,24-hexamethyl-1,7,13,19-tetraoxa-4,10,16,22-tetraazacyclotetracosan-2,5,8,11,14,17,20,23-octaone], the minimal effective concentration lay in the range of 0.01 to 0.1 µM.
To `CC(C)C[C@H]1C(=O)O[C@H](Cc2ccc(Cn3ccc(-c4ccccc4)n3)cc2)C(=O)N(C)[C@@H](CC(C)C)C(=O)O[C@H](C)C(=O)N(C)[C@@H](CC(C)C)C(=O)O[C@H](Cc2ccccc2)C(=O)N(C)[C@@H](CC(C)C)C(=O)O[C@H](C)C(=O)N1C` [Example 2-56, (3S,6R,9S,12R,15S,18R,21S,24R)-6-benzyl-3,9,15,21-tetraisobutyl-4,10,12,16,22,24-hexamethyl-18-(4-((3-phenyl-1H-pyrazol-1-yl)methyl)benzyl)-1,7,13,19-tetraoxa-4,10,16,22-tetraazacyclotetracosan-2,5,8,11,14,17,20,23-octaone] belongs 0.01 to 0.1 µM; to `Cc1cnn(Cc2ccc(C[C@H]3OC(=O)[C@H](CC(C)C)N(C)C(=O)[C@@H](C)OC(=O)[C@H](CC(C)C)N(C)C(=O)[C@@H](Cc4ccc(Cn5ccc(-c6ccccc6)n5)cc4)OC(=O)[C@H](CC(C)C)N(C)C(=O)[C@@H](C)OC(=O)[C@H](CC(C)C)N(C)C3=O)cc2)c1` [Example 1a-28, (3S,6R,9S,12R,15S,18R,21S,24R)-3,9,15,21-tetraisobutyl-4,6,10,16,18,22-hexamethyl-12-(4-((4-methyl-1H-pyrazol-1-yl)methyl)benzyl)-24-(4-((3-phenyl-1H-pyrazol-1-yl)methyl)benzyl)-1,7,13,19-tetraoxa-4,10,16,22-tetraazacyclotetracosan-2,5,8,11,14,17,20,23-octaone], 0.01 to 0.1 µM; to `CC(C)C[C@H]1C(=O)O[C@H](Cc2ccc(Cn3ccc(OC(F)F)n3)cc2)C(=O)N(C)[C@@H](CC(C)C)C(=O)O[C@H](C)C(=O)N(C)[C@@H](CC(C)C)C(=O)O[C@H](Cc2ccc(Cn3ccc(OC(F)F)n3)cc2)C(=O)N(C)[C@@H](CC(C)C)C(=O)O[C@H](C)C(=O)N1C` [Example 1b-156, (3S,6R,9S,12R,15S,18R,21S,24R)-6,18-bis(4-((3-(difluoromethoxy)-1H-pyrazol-1-yl)methyl)benzyl)-3,9,15,21-tetraisobutyl-4,10,12,16,22,24-hexamethyl-1,7,13,19-tetraoxa-4,10,16,22-tetraazacyclotetracosan-2,5,8,11,14,17,20,23-octaone], 0.01 to 0.1 µM.
As for `CC(C)C[C@H]1C(=O)O[C@H](Cc2ccc(Cn3ncc4ccccc43)cc2)C(=O)N(C)[C@@H](CC(C)C)C(=O)O[C@H](C)C(=O)N(C)[C@@H](CC(C)C)C(=O)O[C@H](Cc2ccccc2)C(=O)N(C)[C@@H](CC(C)C)C(=O)O[C@H](C)C(=O)N1C` [Example 10-26, (3S,6R,9S,12R,15S,18R,21S,24R)-6-(4-((1H-indazol-1-yl)methyl)benzyl)-18-benzyl-3,9,15,21-tetraisobutyl-4,10,12,16,22,24-hexamethyl-1,7,13,19-tetraoxa-4,10,16,22-tetraazacyclotetracosan-2,5,8,11,14,17,20,23-octaone], the minimal effective concentration lay within 0.01 to 0.1 µM.
To `CC(C)C[C@H]1C(=O)O[C@H](Cc2ccc(Cn3cc(C(F)(F)F)cn3)cc2)C(=O)N(C)[C@@H](CC(C)C)C(=O)O[C@H](C)C(=O)N(C)[C@@H](CC(C)C)C(=O)O[C@H](Cc2ccc(Cn3cc(C(F)(F)F)cn3)cc2)C(=O)N(C)[C@@H](CC(C)C)C(=O)O[C@H](C)C(=O)N1C` [Example 1b-34, (3S,6R,9S,12R,15S,18R,21S,24R)-3,9,15,21-tetraisobutyl-4,6,10,16,18,22-hexamethyl-12,24-bis(4-((4-(trifluoromethyl)-1H-pyrazol-1-yl)methyl)benzyl)-1,7,13,19-tetraoxa-4,10,16,22-tetraazacyclotetracosan-2,5,8,11,14,17,20,23-octaone] belongs 0.01 to 0.1 µM; to `Cc1nn(Cc2ccc(C[C@H]3OC(=O)[C@H](CC(C)C)N(C)C(=O)[C@@H](C)OC(=O)[C@H](CC(C)C)N(C)C(=O)[C@@H](Cc4ccc(Cn5nc(C6CC6)cc5C5CC5)cc4)OC(=O)[C@H](CC(C)C)N(C)C(=O)[C@@H](C)OC(=O)[C@H](CC(C)C)N(C)C3=O)cc2)cc1CO` [Example 1a-8, (3S,6R,9S,12R,15S,18R,21S,24R)-6-(4-((3,5-dicyclopropyl-1H-pyrazol-1-yl)methyl)benzyl)-18-(4-((4-(hydroxymethyl)-3-methyl-1H-pyrazol-1-yl)methyl)benzyl)-3,9,15,21-tetraisobutyl-4,10,12,16,22,24-hexamethyl-1,7,13,19-tetraoxa-4,10,16,22-tetraazacyclotetracosan-2,5,8,11,14,17,20,23-octaone], 0.01 to 0.1 µM.
As for `CC(C)C[C@H]1C(=O)O[C@H](Cc2ccc(Cn3ccc(Br)cc3=O)cc2)C(=O)N(C)[C@@H](CC(C)C)C(=O)O[C@H](C)C(=O)N(C)[C@@H](CC(C)C)C(=O)O[C@H](Cc2ccc(Cn3ccc(Br)cc3=O)cc2)C(=O)N(C)[C@@H](CC(C)C)C(=O)O[C@H](C)C(=O)N1C` [Example 9-20, (3S,6R,9S,12R,15S,18R,21S,24R)-6,18-bis(4-((4-bromo-2-oxopyridin-1 (2H)-yl)methyl)benzyl)-3,9,15,21-tetraisobutyl-4,10,12,16,22,24-hexamethyl-1,7,13,19-tetraoxa-4,10,16,22-tetraazacyclotetracosan-2,5,8,11,14,17,20,23-octaone], the minimal effective concentration lay in the range of 0.01 to 0.1 µM.
Regarding `CC(C)C[C@H]1C(=O)O[C@H](Cc2ccc(N3CCCC(F)(F)C3)cc2)C(=O)N(C)[C@@H](CC(C)C)C(=O)O[C@H](C)C(=O)N(C)[C@@H](CC(C)C)C(=O)O[C@H](Cc2ccc(CN3CCCC(F)(F)C3)cc2)C(=O)N(C)[C@@H](CC(C)C)C(=O)O[C@H](C)C(=O)N1C` [Example 9-5, (3S,6R,9S,12R,15S,18R,21S,24R)-6-(4-(3,3-difluoropiperidin-1-yl)benzyl)-18-(4-((3,3-difluoropiperidin-1-yl)methyl)benzyl)-3,9,15,21-tetraisobutyl-4,10,12,16,22,24-hexamethyl-1,7,13,19-tetraoxa-4,10,16,22-tetraazacyclotetracosan-2,5,8,11,14,17,20,23-octaone], the minimal effective concentration lay within 0.01 to 0.1 µM.
As for `COCc1nccn1Cc1ccc(C[C@H]2OC(=O)[C@H](CC(C)C)N(C)C(=O)[C@@H](C)OC(=O)[C@H](CC(C)C)N(C)C(=O)[C@@H](Cc3ccc(Cn4ccnc4COC)cc3)OC(=O)[C@H](CC(C)C)N(C)C(=O)[C@@H](C)OC(=O)[C@H](CC(C)C)N(C)C2=O)cc1` [Example 6-19, (3S,6R,9S,12R,15S,18R,21S,24R)-3,9,15,21-tetraisobutyl-6,18-bis(4-((2-(methoxymethyl)-1H-imidazol-1-yl)methyl)benzyl)-4,10,12,16,22,24-hexamethyl-1,7,13,19-tetraoxa-4,10,16,22-tetraazacyclotetracosan-2,5,8,11,14,17,20,23-octaone], the figure is 0.001 to 0.01 µM; as for `CC(C)C[C@H]1C(=O)O[C@H](Cc2ccc(Cn3ccc(C4CC4)n3)cc2)C(=O)N(C)[C@@H](CC(C)C)C(=O)O[C@H](C)C(=O)N(C)[C@@H](CC(C)C)C(=O)O[C@H](Cc2ccc(Cn3ccc(C4CC4)n3)cc2)C(=O)N(C)[C@@H](CC(C)C)C(=O)O[C@H](C)C(=O)N1C` [Example 1b-67, (3S,6R,9S,12R,15S,18R,21S,24R)-6,18-bis(4-((3-cyclopropyl-1H-pyrazol-1-yl)methyl)benzyl)-3,9,15,21-tetraisobutyl-4,10,12,16,22,24-hexamethyl-1,7,13,19-tetraoxa-4,10,16,22-tetraazacyclotetracosan-2,5,8,11,14,17,20,23-octaone], 0.01 to 0.1 µM; as for `CC(C)C[C@H]1C(=O)O[C@H](Cc2ccc(Cn3ccc(CO)n3)cc2)C(=O)N(C)[C@@H](CC(C)C)C(=O)O[C@H](C)C(=O)N(C)[C@@H](CC(C)C)C(=O)O[C@H](Cc2ccc(Cn3ccc(CO)n3)cc2)C(=O)N(C)[C@@H](CC(C)C)C(=O)O[C@H](C)C(=O)N1C` [Example 1b-97, (3S,6R,9S,12R,15S,18R,21S,24R)-6,18-bis(4-((3-(hydroxymethyl)-1H-pyrazol-1-yl)methyl)benzyl)-3,9,15,21-tetraisobutyl-4,10,12,16,22,24-hexamethyl-1,7,13,19-tetraoxa-4,10,16,22-tetraazacyclotetracosan-2,5,8,11,14,17,20,23-octaone], 0.01 to 0.1 µM.
To `CC(C)C[C@H]1C(=O)O[C@H](Cc2cccc(Cn3cc(F)cn3)c2)C(=O)N(C)[C@@H](CC(C)C)C(=O)O[C@H](C)C(=O)N(C)[C@@H](CC(C)C)C(=O)O[C@H](Cc2ccccc2)C(=O)N(C)[C@@H](CC(C)C)C(=O)O[C@H](C)C(=O)N1C` [Example 5-1, (3S,6R,9S,12R,15S,18R,21S,24R)-6-benzyl-18-(3-((4-fluoro-1H-pyrazol-1-yl)methyl)benzyl)-3,9,15,21-tetraisobutyl-4,10,12,16,22,24-hexamethyl-1,7,13,19-tetraoxa-4,10,16,22-tetraazacyclotetracosan-2,5,8,11,14,17,20,23-octaone] belongs 0.001 to 0.01 µM; to `CC(C)C[C@H]1C(=O)O[C@H](Cc2ccc(Cn3cc(S(=O)(=O)N4CCC4)cn3)cc2)C(=O)N(C)[C@@H](CC(C)C)C(=O)O[C@H](C)C(=O)N(C)[C@@H](CC(C)C)C(=O)O[C@H](Cc2ccccc2)C(=O)N(C)[C@@H](CC(C)C)C(=O)O[C@H](C)C(=O)N1C` [Example 2-27, (3S,6R,9S,12R,15S,18R,21S,24R)-6-(4-((4-(azetidin-1-ylsulfonyl)-1H-pyrazol-1-yl)methyl)benzyl)-18-benzyl-3,9,15,21-tetraisobutyl-4,10,12,16,22,24-hexamethyl-1,7,13,19-tetraoxa-4,10,16,22-tetraazacyclotetracosan-2,5,8,11,14,17,20,23-octaone], 0.01 to 0.1 µM.
